In patent US6468537B1, “Localization of major peptide autoepitopes for nucleosome specific T cells of systemic lupus erythematosus” (The Board of Trustees of Northwestern University, priority 1999, dated 2002):

Experiments:
[1] = tested on: pathogenic Th clones from SNF1 mice; assay: Stimulation of nucleosome-specific pathogenic Th clones from SNF1 mice by eluted/synthetic peptides; format: cell-based, mouse; details: A20 or splenic B+Mφ as APC
Method: Fresh splenic, CD4^+ T cells (5×10^5/well) were co-cultured in triplicate wells at an initial concentration of 5×10^5 cells per well, with 10^6 cells per well of either irradiated B+Mφ or mitomycin-C treated A20 APC. Varying concentrations of either control or test peptides were added and the cultures were adjusted to 200 microliters final volume of HL-1 serum-free medium (Hycor Biomedical Inc., Irvine, Calif.) cultures were incubated for 96 hours in flat bottom 96-well plates, and at 18 hours prior to harvesting the cells, 1 microcurie of 3H-Thymidine was added to each well. The incorporated radioactivity was measured by scintillation counting. The Stimulation Index (SI) was calculated by dividing the mean counts per minute (cpm) incorporated in co-cultures of T cells and APC with test peptide by the mean cpm incorporated in control peptide co-cultures. In the case of cytokine assays, experiments were carried out as described for the proliferation assays except that the culture supernatants were removed from duplicate co-culture wells after 24-46 hours of incubation and cytokine assays were performed.
An aliquot of 50 microliters from each HPLC fraction was assayed for stimulating ability as described above. Four characterized Th clones were used as indicators of cytokine secretion (IL-2 and/or IL-4) in response to the peptide fractions, using A20 or splenic B+Mψ as APCs (Adams, et al., 1991, Proc. Natl. Acad. Sci. USA 88:11271-11275; Shi, et al., 1998, J. Exp. Med. 187:367-378). […] Only two out of one hundred fractions tested were able to stimulate Th cell clones. […] The latter was further separated as described, and tested for active fractions of HPLC purified peptides.. Three naturally processed and presented, stimulatory epitopes were identified using these procedures. The sequences of the peptides are as follows: SQKEEEEGAQREKE (EP-1, SEQ ID NO: 23); DWMEEEHGAQREKE (EP-2, SEQ ID NO: 24); and […] (EP-3, or H522-42, SEQ ID NO: 25). The first two peptides were homologous to sequences in a transcription factor, BRN-3, which is identical in chicken, mice and humans (GenBank). […] EP-1 is highly homologous to EP-2, but it also matched a sequence in cytomegalovirus envelope protein at aa position 57-70. Most likely these peptides are derived from some transcription factor in the chromatin that was incubated with the APC. The third sequence (EP-3) was derived from histone H5 (aa position 22-42) in chicken nucleosome, which is homologous to histone H1 sequence of mice and humans at amino acid position 22-42 ([…], SEQ ID NO:26). […] Therefore, the mouse H122-42 is the autoantigenic peptide in mice and is also referred to herein as EP-3. Nested sequences and unrelated sequences that were obtained in the active fractions from the eluates were also synthesized and re-tested.

[2] = tested on: SNF1 mice; assay: Acceleration of SLE-associated nephritis by immunization with eluted peptides in adjuvant; format: in vivo, mouse; details: for onset/rate of disease relative to control group (CFA alone or OVA peptide in CFA): immunization from 12 weeks
Text: The animals received three more injections at two weeks interval with 50 micrograms of either an eluted peptide or the control peptide absorbed on alum (Pierce Chemical Co., Rockford, Ill.).

[3] = tested on: SNF1 mice; assay: Brief therapy with nucleosomal histone peptides (long-term experiments): incidence of severe nephritis; format: in vivo, mouse
Method: (§1) Long-term experiments used 12 week-old, autoimmune, but pre-nephritic SNF1 female mice. Nine mice per peptide test group were injected intravenously with either a saline (solution) or a peptide solution comprising saline and 300 micrograms of one of H2B10-33, H416-39, and H471-94. Each mouse received three subsequent injections of either the saline solution or one of the peptide solutions at two-week intervals. The mice were monitored weekly for proteinuria using an Albustix kit (VWR Scientific, Chicago, Ill.), and sacrificed upon the development of persistent proteinuria. Persistent protenuria was identified as an amount of protein in urine that is equivalent to or greater than 300 milligrams per deciliter, and is a primary indication of severe kidney disease and damage associated with nephritis. Sera were collected from each mouse and the IgG anti-nuclear autoantibodies determined. Blood urea nitrogen (BUN) was measured by Azostix (Miles, Ekhart, Ind.). Immune complex deposition and glomerulonephritis in the kidney were detected by staining with Hematoxylin and Eosin and anti-mouse Ig. These procedures were carried out as previously described (Mohan et al., 1993, J. Exp. Med. 177:1367; Mohan et al., 1995, J. Immunol. 154:1470; Eastcott et al., 1983, J. Immunol. 131:2232; Adams et al., 1991, Proc. Natl. Acad. Sci. USA 88:11271; Kalled et al., 1998, J. Immunol. 160:2158; Gaynor et al., 1997, Proc. Natl. Acad. Sci. USA 94:1955).

[4] = tested on: SNF1 mice; assay: Short-term tolerance experiments: grading of lupus nephritis at sacrifice; format: in vivo, mouse; details: short-term batch, at sacrifice two weeks after last injection
Method: Short-term experiments were conducted to test the early immunological consequences of tolerance therapy. Twelve week old SNF1 mice were injected once a week for four weeks with either a saline solution or a peptide solution comprising saline and 300 micrograms of one of the above described peptides. Mice were sacrificed at two weeks after the last injection. Presence of autoimmune T and B cells was analyzed and renal lesions were graded.

[5] = tested on: CD4+ T cells; assay: Helper assay: CD4+ T cells from peptide-injected mice co-cultured with B cells from unmanipulated SNF1 mice; format: cell-based, mouse
Text: (§2) Levels of IgG class autoantibodies specific for single-stranded DNA (ssDNA), double-stranded DNA (dsDNA), histones, and nucleosomes (i.e. histone-DNA complexes), in culture supernatants or serum, were estimated using an enzyme-linked immunosorbent assay (ELISA). Anti-DNA mAbs 564 and 205 were used to generate standard curves as previously described (Mohan et al., 1993, J. Exp. Med. 177:1367; Kaliyaperumal et al., 1996, J. Exp. Med. 183:2459; Mohan et al., 1995, J. Immunol. 154:1470; Adams et al., 1991, Proc. Natl. Acad. Sci. USA 88:11271). Sera were diluted 1:400 and heat-inactivated before use according to standard procedures. Sera from normal SWR mice were used as the negative control. Total polyclonal IgG levels were also measured by ELISA as previously described (Mohan et al., 1993, J. Exp. Med. 177:1367; Mohan et al., 1995, J. Immunol. 154:1470; Adams et al., 1991, Proc. Natl. Acad. Sci. USA 88:11271).
T-cells from peptide-treated mice used in the short-term experiments were co-cultured with splenic B cells from unmanipulated mice. Conversely, T cells from unmanipulated SNF1 mice (i.e. control mice) were co-cultured with splenic B cells from tolerized (i.e. peptide-injected) mice. Each of the cell types was seeded in 24-well plates at an initial concentration of 2.5×10^6 cells per well. Cultures were maintained for 7 days, as previously described (Datta et al., 1987, J. Exp. Med. 165:1252; Sainis and Datta, 1988, J. Immunol. 140:2215). B cells from unmanipulated or tolerized animals were cultured alone to measure baseline autoantibody production. Culture supernatants were collected, freeze-thawed, and assayed by ELISA for antibodies against ssDNA, dsDNA, histones and nucleosomes. For studies involving stimulation of B cells by soluble CD40 ligand, CD40L-CD8 fusion protein (Wortis et al., 1995, Proc. Natl. Acad. Sci. USA 92:3348) was added to either the co-culture wells or the wells with B cells alone and maintained in the medium for the entire 7-day culture period.

[6] = tested on: SNF1 mice; assay: IgG anti-nuclear autoantibody and total IgG levels in sera of peptide-injected mice (ELISA); format: in vivo, mouse; details: sera 1:400
Method: as §1, §2

[7] = tested on: SNF1 mice; assay: Chronic therapy of established glomerulonephritis with nucleosomal peptides; format: in vivo, mouse
Method: Six mice per group were injected intraperitoneally once each month with either a saline solution or a peptide solution comprising saline and 300 micrograms of one of the identified peptides. The endpoint of these experiments was the development of moribund state due to renal failure.

[8] = tested on: CD4+ T cell clone DD2; assay: IL-2 production by lupus Th cell clone DD2 in response to histone peptides; format: cell-based, human
Method: Short-term T cell lines were rapidly thawed from liquid nitrogen and expanded in the presence of plate-bound anti-CD3 mAb, anti-CD28 mAb, and rIL-2 (20 units per milliliter). The expanded cells were transferred to fresh culture wells and rested by incubating in fresh medium for 10 to 14 days. For stimulation assays, 96 well plates were coated with 2 micrograms per milliliter of goat anti-mouse IgG antibodies overnight at 37° C. After washing the plates twice with Dulbecco's phosphate-buffered saline (dPBS), autologous and previously irradiated (3,000 rad) EBV-B cells (APC) were first added to each well at a concentration of 1×10^5 cells per well. The cells (APC) were cultured together with either a core histone peptide or a control peptide for 6 hours in HL-1 serum free medium (Bio Whittaker, Maryland). This procedure was followed by the addition to each well of CD4^+ T cells from the short-term lines at a concentration of 1×10^5 cells per well, and the addition of 0.5 micrograms per milliliter of a mouse monoclonal antibody (mAb) to human CD28. The final volume of the cultures was 200 microliters per well. Cells were co-cultured for 24 hours at 37° C. One-half the volume of supernatant was collected from each well for ELISA analysis of interleukin levels. Fresh medium (100 microliters) was added to cells, and the cells were incubated an additional 48 hours. [^3H] thymidine was added, and the cultures were incubated an additional 18 hours. Incorporated radioactivity was measured to quantitate T cell proliferation as described previously (Desai-Mehta et al., 1995, J. Clin. Invest. 95:53 1-541). HLA class II dependence of antigen-specific responses by the CD4^+ T cells was determined by adding to the co-cultures a blocking antibody from a panel of mAb to HLA class II molecules, as described previously (Desai-Mehta et al., 1995, J. Clin. Invest. 95:53 1-541). […]
IL-2 secreted by CD4^+ T cells in short term experiments was measured using an ELISA. […]

[9] = tested on: short-term CD4+ T cell lines; assay: IL-2 production by short-term CD4+ T cell lines in response to histone peptides (pepscan); format: cell-based, human
Method: Short-term T cell lines were rapidly thawed from liquid nitrogen and expanded in the presence of plate-bound anti-CD3 mAb, anti-CD28 mAb, and rIL-2 (20 units per milliliter). The expanded cells were transferred to fresh culture wells and rested by incubating in fresh medium for 10 to 14 days. For stimulation assays, 96 well plates were coated with 2 micrograms per milliliter of goat anti-mouse IgG antibodies overnight at 37° C. After washing the plates twice with Dulbecco's phosphate-buffered saline (dPBS), autologous and previously irradiated (3,000 rad) EBV-B cells (APC) were first added to each well at a concentration of 1×10^5 cells per well. The cells (APC) were cultured together with either a core histone peptide or a control peptide for 6 hours in HL-1 serum free medium (Bio Whittaker, Maryland). This procedure was followed by the addition to each well of CD4^+ T cells from the short-term lines at a concentration of 1×10^5 cells per well, and the addition of 0.5 micrograms per milliliter of a mouse monoclonal antibody (mAb) to human CD28. The final volume of the cultures was 200 microliters per well. Cells were co-cultured for 24 hours at 37° C. One-half the volume of supernatant was collected from each well for ELISA analysis of interleukin levels. Fresh medium (100 microliters) was added to cells, and the cells were incubated an additional 48 hours. [^3H] thymidine was added, and the cultures were incubated an additional 18 hours. Incorporated radioactivity was measured to quantitate T cell proliferation as described previously (Desai-Mehta et al., 1995, J. Clin. Invest. 95:53 1-541). HLA class II dependence of antigen-specific responses by the CD4^+ T cells was determined by adding to the co-cultures a blocking antibody from a panel of mAb to HLA class II molecules, as described previously (Desai-Mehta et al., 1995, J. Clin. Invest. 95:53 1-541).
IL-2 secreted by CD4^+ T cells in short term experiments was measured using an ELISA. Capture and biotinylated antibody pairs directed at human IL-2 and standards for use therein were purchased from PharMingen. […]

For “DWMEEEHGAQREKE (DWMEEEEGAQREKE; Histone fragment) [EP-2]”, the “stimulation of pathogenic Th clones” value [1] was “stimulatory”, the mice developed disease ([2]; by 20 weeks of age) was 60% and the “onset/rate of disease relative to control group (CFA alone or OVA peptide in CFA)” value [2] was “developed severe nephritis earlier”.
For “H2B10-33: histone 2B protein (H2B) amino acids 10-33”, the “incidence of severe nephritis” value ([3]; at 28 weeks of age, 300 micrograms i.v., four injections at two-week intervals from 12 weeks) was “did not develop disease”, the “incidence of severe nephritis” value ([3]; at 36-38 weeks of age, control 88.8%) was 33.3% and the “Percent Incidence, Grading of Lupus Nephritis 1+” value [4] was 66.6. For the same substance, the “Percent Incidence, Grading of Lupus Nephritis 2+” value [4] was 33.3, the “reduction of anti-ssDNA antibody production relative to control group” value ([5]; T cells from treated mice + B cells from unmanipulated mice) was “approximately 55%” and the “decrease in anti-dsDNA antibody production relative to control group” value ([5]; T cells from treated mice + B cells from unmanipulated mice, 7 days) was “five fold decrease”. For the same substance, the “increase in help for anti-dsDNA antibody production following addition of rIL-2” value ([5]; rIL-2 added at beginning of 7-day culture) was “did not exhibit any increase”, the “serum anti-dsDNA antibody level” value ([6]; at 36 weeks of age, control 26±3.2) was 14.0±3.2 units and the “serum anti-dsDNA antibody level” value ([6]; at the start of treatment (12 weeks), control 5.5±0.3) was 7.7±0.9 units. For the same substance, the survival ([7]; by 26 months age) was “only one mouse in the H2B10-33 group survived” and the mice alive ([7]; two months after start of treatment (all controls dead), 300 micrograms i.p. monthly, 18-month old mice) was 66.6%.
In the case of “H355-69: 15-mer nucleosomal histone H3 peptide, positions 55-69 (QKSTELLIRKLPFQR; UniProt P68431 56-70, looked up, fragment)”, the “stimulation of DD2” value ([8]; autologous EBV-B cells pulsed with peptide as APC) is reported as “stimulated DD2 very weakly”.
For “H416-30: 15-mer histone H4 peptide, positions 16-30”, the “IL-2 production response, percentage of maximal response stimulated by anti-CD3 mAb” value ([9]; average of 10 lupus T cell lines, baseline 22%) was 23±2.6%.
“H449-63: histone peptide of H4, positions 49-63 (LIYEETRGVLKVFLE)” was tested, and the “HLA class II dependence of peptide presentation” value ([9]; short-term T cell line L-EB, autologous EBV-B cells, blocking mAb) was “inhibited mainly by anti-DR mAb”.
With “SQKEEEEGAQREKE (Histone fragment) [EP-1]” the “stimulation of pathogenic Th clones” value [1] was “stimulatory” and the “onset/rate of disease relative to control group (CFA alone or OVA peptide in CFA)” value [2] was “did not result in any increase in the rate of disease”.
“anti-CD3: Anti-CD3 antibody (mAb) produced by hybridoma OKT3, positive control stimulus [reference compound]” was tested, and the “IL-2 production by T cell clone DD2” value ([8]; background with APC without peptide 132) was 554 picograms per milliliter.
